From patent US12084473B2, “β-D-2′-deoxy-2′-α-fluoro-2′-β-C-substituted-2-modified-N6-substituted purine nucleotides for HCV treatment” (Atea Pharmaceuticals, Inc., priority 2015, dated 2024)
pIC50: −log10 of the molar value. Read-outs that look alike come from different tables or passages of the source.

What was measured:
[1] = tested on: HCV S282T replicon; experiment: microbe, parasite or virus in culture; format: cell-based; settings: for pIC50: Hepatitis C virus, 96 h, read-out: IC50 Value; for Fold Change in IC50 from Sofosbuvir / Fold Change in IC95 from Sofosbuvir / IC95 Value: NS5B Mutation S282T; for IC95 Value: transient assay, 96-hr
Procedure: (§1) A transient transfection assay was performed to determine the sensitivity of the […] of HCV to test compounds. Huh-7 cells were electroporated in the presence of RNA transcribed from wild type or S282T HCV replicon plasmids from the T7 promoter. The transfected cells were seeded in to 96-well plates at 7.5×10^3 cells per well in Dulbecco's Modified Eagle's medium. After 24 hr of incubation, medium was removed and replaced with fresh medium containing no or various concentrations of test compounds. Following an additional 96-hr incubation, the anti-HCV activity was measured by luciferase endpoint with Britelite™ Plus luminescence reporter gene kit (Perkin Elmer, Shelton, CT). Duplicate plates were treated and incubated in parallel for assessment of cellular toxicity by staining with the tetrazolium dye XTT.

[2] = tested on: HCV wild type replicon; experiment: microbe, parasite or virus in culture; format: cell-based; settings: for pIC50: Hepatitis C virus, read-out: IC50 Value
Procedure: as §1

[3] = Human Bone Marrow Progenitor Cell Assay; format: cell-based; settings: human, fresh human bone marrow progenitor cells; read-out: CC50 in human bone marrow stem cells
Procedure: Fresh human bone marrow progenitor cells (Invitrogen) suspended in either BFU-E or GM-CSF-specific culture medium were added, at 10^5 cells/well, to triplicate serial dilutions of TA in 6-well plates. After 14-day incubations, colony counts were used to determine CC50 values. BFU-E colonies were confirmed using the benzidene technique.

[4] = iPS Cardiomyocyte Assay; format: cell-based, human; settings: human, iPS cardiomyocytes
Procedure: iPS Cardiomyocytes (Cellular Dynamics) were seeded in microliter plates at 1.5×10^4 cells per well. After 48-hr incubation, cells were washed and maintenance medium containing serially diluted TA was added in triplicate. After incubating for an additional 3 days, cell viability was measured by staining with XTT and CC50 values were calculated.

[5] = target: T1, human DNA polymerase α (Homo sapiens, UniProt P09884); experiment: Human DNA Polymerase Assays; format: biochemical; settings: at concentrations up to 100 μM
T1 construct: purchased CHIMERx
T1 sequence (P09884 1-1462): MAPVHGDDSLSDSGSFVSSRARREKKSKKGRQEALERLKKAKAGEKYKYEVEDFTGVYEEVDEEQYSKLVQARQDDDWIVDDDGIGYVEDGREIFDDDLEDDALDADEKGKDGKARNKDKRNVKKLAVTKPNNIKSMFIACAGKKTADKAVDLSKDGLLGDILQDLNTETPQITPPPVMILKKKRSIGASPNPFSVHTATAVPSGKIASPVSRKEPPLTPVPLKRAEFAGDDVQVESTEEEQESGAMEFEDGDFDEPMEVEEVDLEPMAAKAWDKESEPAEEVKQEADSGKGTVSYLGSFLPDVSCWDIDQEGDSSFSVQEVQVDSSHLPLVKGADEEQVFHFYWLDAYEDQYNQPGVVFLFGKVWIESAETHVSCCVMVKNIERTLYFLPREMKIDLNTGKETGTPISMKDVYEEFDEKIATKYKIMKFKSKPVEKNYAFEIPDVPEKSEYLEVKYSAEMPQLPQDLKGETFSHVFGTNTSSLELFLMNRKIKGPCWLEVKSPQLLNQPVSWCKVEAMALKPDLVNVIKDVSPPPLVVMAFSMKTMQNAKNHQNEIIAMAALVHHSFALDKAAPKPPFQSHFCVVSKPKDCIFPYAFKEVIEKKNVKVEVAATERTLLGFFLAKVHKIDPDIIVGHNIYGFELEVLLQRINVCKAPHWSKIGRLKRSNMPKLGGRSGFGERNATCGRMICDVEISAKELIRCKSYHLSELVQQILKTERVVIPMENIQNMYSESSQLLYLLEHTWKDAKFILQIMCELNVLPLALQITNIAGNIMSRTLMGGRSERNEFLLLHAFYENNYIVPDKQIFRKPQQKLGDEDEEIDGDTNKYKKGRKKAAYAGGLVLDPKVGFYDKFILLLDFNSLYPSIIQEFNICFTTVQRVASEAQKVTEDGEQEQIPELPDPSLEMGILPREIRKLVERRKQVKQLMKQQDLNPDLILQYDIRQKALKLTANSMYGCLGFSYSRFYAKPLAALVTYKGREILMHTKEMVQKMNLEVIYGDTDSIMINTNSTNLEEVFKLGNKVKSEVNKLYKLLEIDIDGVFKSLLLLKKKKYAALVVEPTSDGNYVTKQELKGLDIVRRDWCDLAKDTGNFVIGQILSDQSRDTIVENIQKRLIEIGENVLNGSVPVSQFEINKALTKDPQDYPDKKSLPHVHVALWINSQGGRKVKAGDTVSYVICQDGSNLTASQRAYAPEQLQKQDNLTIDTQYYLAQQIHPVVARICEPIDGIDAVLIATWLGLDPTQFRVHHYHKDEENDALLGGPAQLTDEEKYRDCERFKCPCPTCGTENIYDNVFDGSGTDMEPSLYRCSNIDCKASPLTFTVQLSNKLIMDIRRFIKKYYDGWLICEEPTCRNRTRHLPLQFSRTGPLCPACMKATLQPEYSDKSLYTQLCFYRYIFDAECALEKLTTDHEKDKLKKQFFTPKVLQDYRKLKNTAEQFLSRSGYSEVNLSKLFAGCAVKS
Procedure: Inhibition of human DNA polymerases α, β and γ (CHIMERx) was determined in triplicate in reaction mixtures of serially diluted TA, 0.05 mM dCTP, dTTP, and dATP, 10 μCi [^32P]-α-dGTP (800 Ci/mmol), 20 μg activated calf thymus DNA and additional reagents specific for each polymerase.

[6] = tested on: other RNA or DNA viruses; experiment: Activity against other RNA or DNA viruses; format: cell-based; settings: at concentrations up to 100 μM
[7] = NS5B Mutation None, transient assay, 96-hr

SMILES | cross-resistance to S282T variant [1] | pIC50 [1] | Fold Change in IC50 from Sofosbuvir [1] | Fold Change in IC95 from Sofosbuvir [1] | IC95 Value [1] | IC95 Value [2] | pIC50 ([2]; 96 h) | Fold Change in IC50 from Sofosbuvir ([2]; NS5B Mutation None) | Fold Change in IC95 from Sofosbuvir ([2]; NS5B Mutation None) | CC50 at 14 day [3] | CC50 at 3 day [4] | inhibition of human DNA polymerase α [5] | activity against other RNA or DNA viruses [6] | pIC50 [2, 7] | IC95 Value [2, 7]
CC(C)OC(=O)[C@H](C)N[P@](=O)(OCC1O[C@@H](n2cnc3c(N(C)C)nc(N)nc32)[C@](C)(F)[C@@H]1O)Oc1ccccc1 (stereo partly drawn) [Compound 25, isopropyl ((((S)-(2R,3R,4R,5R)-5-(2-amino-6-(dimethylamino)-9H-purin-9-yl)-4-fluoro-3-hydroxy-4-methyltetrahydrofuran-2-yl)methoxy)-phenoxy-phosphoryl)-L-alaninate] | neither 25, 27, nor 5-2 compounds showed any evidence of cross-resistance | > 9.00 | >278 | >106.4 | 9.4 nM | 2.7 nM | > 9.00 | >36.4 | 80.7 | > 100000 nM | > 100000 nM | No inhibition | no activity | – | –
CNc1nc(N)nc2c1ncn2[C@@H]1OC(CO[P@@](=O)(N[C@@H](C)C(=O)OC(C)C)Oc2ccccc2)[C@@H](O)[C@@]1(C)F (some centres unmarked) [Compound 5-2] | neither 25, 27, nor 5-2 compounds showed any evidence of cross-resistance | 8.55 | 99.3 | <48.5 | 20.6 nM | – | – | 26 | 22.2 | – | – | – | – | 8.85 | 9.98 nM
CC(C)OC(=O)[C@H](C)N[P@](=O)(OCC1O[C@@H](n2cnc3c(N(C)C4CC4)nc(N)nc32)[C@](C)(F)[C@@H]1O)Oc1ccccc1 (stereo partly drawn) [Compound 27, isopropyl ((((S)-(2R,3R,4R,5R)-5-(2-amino-6-(methylcyclopropanamino)-9H-purin-9-yl)-4-fluoro-3-hydroxy-4-methyltetrahydrofuran-2-yl)methoxy)-phenoxy-phosphoryl)-L-alaninate] | neither 25, 27, nor 5-2 compounds showed any evidence of cross-resistance | > 9.00 | >278 | >84.7 | 11.8 nM | 4.1 nM | > 9.00 | >36.4 | 53.2 | > 100000 nM | > 100000 nM | No inhibition | no activity | – | –
